# Where two headings read alike, the source gives them in different places.
# What was measured:
# [1] = tested on: necrosis; experiment: Necrosis inhibitory activity (cell necrosis / cell viability assay); format: cell-based; details: read-out: EC50
# From the text: Necrosis Inhibitory Activity
# Representative IC50 of hRIP1 Kinase Assay Correlated with Our IC50 of Cell Necrosis Assay: […]
# [2] = tested on: ferroptosis; experiment: Ferroptosis inhibitor activity; format: cell-based; details: 1 uM threshold activity extrapolated
# From the text: Ferroptosis Inhibitor Activity 1 Um Threshold Activity Extrapolated
# [3] = Prodrug enhanced metabolic stability: liver microsome (L); format: in vitro ADME; set-up: key: +, Extrapolated
# From the text: (§1) Prodrug Enhanced Metabolic Stability: Liver Microsome (L), Hepatocyte (H) and PK
# [4] = Prodrug enhanced metabolic stability: hepatocyte (H); format: in vitro ADME; set-up: key: +, Extrapolated
# From the text: as §1
# [5] = Prodrug enhanced metabolic stability: PK; format: in vivo; set-up: key: +, Extrapolated
# From the text: as §1
# [6] = Necrosis Inhibitory Activity, given as range
Structure (SMILES),"EC50 [1, 6] [nM]",EC50 [2] [nM],EC50 ([1]; Active Pro-drugs) [nM],L [3],H [4],PK [5]
"CCC(C)(C)C(=O)N(O)Cc1ccccc1F [Compound 1, N-(2-fluorobenzyl)-N-hydroxy-2,2-dimethylbutanamide]",1 to 1000,1000 to 10000,,,,
"CCC(C)(C)C(=O)N(O)Cc1cccc(F)c1 [Compound 2, N-(3-fluorobenzyl)-N-hydroxy-2,2-dimethylbutanamide]",1 to 1000,1000 to 10000,,,,
"CCC(C)(C)C(=O)N(O)Cc1ccccc1Cl [Compound 3, N-(2-chlorobenzyl)-N-hydroxy-2,2-dimethylbutanamide]",1 to 1000,1000 to 10000,,,,
"CCC(C)(C)C(=O)N(O)Cc1cccc(Cl)c1 [Compound 4, N-(3-chlorobenzyl)-N-hydroxy-2,2-dimethylbutanamide]",1 to 1000,1000 to 10000,,,,
"CCC(C)(C)C(=O)N(O)Cc1cccc(Br)c1 [Compound 5, N-(3-bromobenzyl)-N-hydroxy-2,2-dimethylbutanamide]",1 to 1000,1000 to 10000,,,,
"CC(C)(C(=O)N(O)Cc1ccccc1)C(F)(F)F [Compound 6, N-benzyl-3,3,3-trifluoro-N-hydroxy-2,2-dimethylpropanamide]",1 to 1000,1000 to 10000,,,,
"CC(C)(C)C(=O)N(O)Cc1ccccc1 [Compound 7, N-benzyl-N-hydroxypivalamide]",1 to 1000,1000 to 10000,,,,
"CCC(C)(C)C(=O)N(O)Cc1ccccn1 [Compound 8, N-hydroxy-2,2-dimethyl-N-(pyridin-2-ylmethyl)butanamide]",1000 to 10000,1000 to 10000,,,,
"CCC(C)(C)C(=O)N(O)Cc1cccc(F)c1F [Compound 9, N-(2,3-difluorobenzyl)-N-hydroxy-2,2-dimethylbutanamide]",1 to 1000,1000 to 10000,,,,
"CCC(C)(C)C(=O)N(O)Cc1c(F)cc(F)cc1F [Compound 10, N-hydroxy-2,2-dimethyl-N-(2,4,6-trifluorobenzyl)butanamide]",1000 to 10000,1000 to 10000,,,,
"CCC(C)(C)C(=O)N(O)Cc1c(F)c(F)c(F)c(F)c1F [Compound 11, N-hydroxy-2,2-dimethyl-N-((perfluorophenyl)methyl)butanamide]",1000 to 10000,1000 to 10000,,,,
"CCC(C)(C)C(=O)N(O)Cc1cc(F)cc(C#N)c1 [Compound 12, N-(3-cyano-5-fluorobenzyl)-N-hydroxy-2,2-dimethylbutanamide]",1 to 1000,1000 to 10000,,,,
"CCC(C)(C)C(=O)N(O)Cc1cc(F)ccc1F [Compound 14, N-(2,5-difluorobenzyl)-N-hydroxy-2,2-dimethylbutanamide]",1 to 1000,1000 to 10000,,,,
"CCC(C)(C)C(=O)N(O)Cc1cc(F)cc(Cl)c1 [Compound 17, N-(3-chloro-5-fluorobenzyl)-N-hydroxy-2,2-dimethylbutanamide]",1 to 1000,1000 to 10000,,,,
"CCC(C)(C)C(=O)N(O)Cc1ccc(Br)cc1 [Compound 18, N-(4-bromobenzyl)-N-hydroxy-2,2-dimethylbutanamide]",1 to 1000,1000 to 10000,,,,
"CCC(C)(C)C(=O)N(O)Cc1cc(C)c(C)s1 [Compound 21, N-((4,5-dimethylthiophen-2-yl)methyl)-N-hydroxy-2,2-dimethylbutanamide]",1 to 1000,1000 to 10000,,,,
"CCC(C)(C)C(=O)N(O)Cc1sccc1C [Compound 22, N-hydroxy-2,2-dimethyl-N-((3-methylthiophen-2-yl)methyl)butanamide]",1000 to 10000,1000 to 10000,,,,
"CCC(C)(C)C(=O)N(O)CC1=CCCCC1 [Compound 25, N-(cyclohex-1-en-1-ylmethyl)-N-hydroxy-2,2-dimethylbutanamide]",1 to 1000,1000 to 10000,,,,
"[2H]C([2H])C([2H])([2H])C(C)(C)C(=O)N(O)Cc1ccc(F)cc1 [Compound 29, N-(4-fluorobenzyl)-N-hydroxy-2,2-dimethylbutanamide-3,3,4,4-d4]",1 to 1000,1000 to 10000,,,,
"[2H]c1c([2H])c([2H])c(C([2H])([2H])N(O)C(=O)C(C)(C)CC)c([2H])c1[2H] [Compound 30, N-hydroxy-2,2-dimethyl-N-((phenyl-d5)methyl-d2)butanamide]",1 to 1000,1000 to 10000,,,,
"[2H]CC([2H])C(C)(C)C(=O)N(O)C([2H])([2H])c1c([2H])c([2H])c([2H])c([2H])c1[2H] (centres unmarked) [Compound 31, N-hydroxy-2,2-dimethyl-N-((phenyl-d5)methyl-d2)butanamide-3,4-d2]",1 to 1000,1000 to 10000,,,,
"CC1(C(C)(C)C(=O)N(O)Cc2ccccc2)CC1 [Compound 32, N-benzyl-N-hydroxy-2-methyl-2-(1-methylcyclopropyl) propanamide]",1 to 1000,1000 to 10000,,,,

Structure (SMILES),"EC50 [1, 6] [nM]",EC50 [2] [nM],EC50 ([1]; Active Pro-drugs) [nM],L [3],H [4],PK [5]
"O=C(C1CCCC1)N(O)Cc1ccccc1 [Compound 33, N-benzyl-N-hydroxycydopentanecarboxamide]",1000 to 10000,1000 to 10000,,,,
"O=C(N(O)Cc1ccccc1)C1(C(F)(F)F)CCCC1 [Compound 34, N-benzyl-N-hydroxy-1-(trifluoromethyl)cyclopentane-1-carboxamide]",1 to 1000,1000 to 10000,,,,
"CC1(C(=O)N(O)Cc2ccccc2)CCCCC1 [Compound 36, N-benzyl-N-hydroxy-1-methylcyclohexane-1-carboxamide]",1 to 1000,1000 to 10000,,,,
"O=C(C1CCCCC1)N(O)Cc1ccccc1 [Compound 37, N-benzyl-N-hydroxycyclohexanecarboxamide]",1000 to 10000,1000 to 10000,,,,
"CCC1(C(=O)N(O)Cc2ccc(F)cc2)CC1 [Compound 39, 1-ethyl-N-(4-fluorobenzyl)-N-hydroxycyclopropane-1-carboxamide]",1000 to 100000,1000 to 10000,,,,
"CCC1(C(=O)N(O)Cc2ccc(Cl)cc2)CC1 [Compound 40, N-(4-chlorobenzyl)-1-ethyl-N-hydroxycyclopropane-1-carboxamide]",1000 to 10000,1000 to 10000,,,,
"CCC1(C(=O)N(O)Cc2cc(F)cc(F)c2)CC1 [Compound 41, N-(3,5-difluorobenzyl)-1-ethyl-N-hydroxycyclopropane-1-carboxamide]",1000 to 10000,1000 to 10000,,,,
"CC(C)(C(=O)N(O)Cc1ccc(Br)cc1)C(F)(F)F [Compound 42, N-(4-bromobenzyl)-3,3,3-trifluoro-N-hydroxy-2,2-dimethylpropanamide]",1 to 1000,1000 to 10000,,,,
"CC(C)(C(=O)N(O)Cc1ccc(F)cc1)C(F)(F)F [Compound 43, 3,3,3-trifluoro-N-(4-fluorobenzyl)-N-hydroxy-2,2-dimethylpropanamide]",1 to 1000,1000 to 10000,,,,
"CC(C)(C(=O)N(O)Cc1ccc(Cl)cc1)C(F)(F)F [Compound 44, N-(4-chlorobenzyl)-3,3,3-trifluoro-N-hydroxy-2,2-dimethylpropanamide]",1 to 1000,1000 to 10000,,,,
"CC(C)(C(=O)N(O)Cc1cc(F)cc(F)c1)C(F)(F)F [Compound 45, N-(3,5-difluorobenzyl)-3,3,3-trifluoro-N-hydroxy-2,2-dimethylpropanamide]",1 to 1000,1000 to 10000,,,,
"CC(C)(C(=O)N(O)Cc1cc(F)c(F)c(F)c1)C(F)(F)F [Compound 46, 3,3,3-trifluoro-N-hydroxy-2,2-dimethyl-N-(3,4,5-trifluorobenzyl)propenamide]",1000 to 10000,1000 to 10000,,,,
"Cc1cc(CN(O)C(=O)C(C)(C)C(F)(F)F)sc1C [Compound 47, N-((4,5-dimethylthiophen-2-yl)methyl)-3,3,3-trifluoro-N-hydroxy-2,2-dimethylpropanamide]",1 to 1000,1000 to 10000,,,,
"CC(C)(C(=O)N(O)Cc1cccs1)C(F)(F)F [Compound 49, 3,3,3-trifluoro-N-hydroxy-2,2-dimethyl-N-(thiophen-2-ylmethyl)propanamide]",1 to 1000,1000 to 10000,,,,
"CCOC(=O)ON(Cc1ccccc1)C(=O)C(C)(C)CC [Compound 50, N-benzyl-N-((ethoxycarbonyl)oxy)-2,2-dimethylbutanamide]",,,69.6,+,+,+
"CCC(C)(C)C(=O)N(Cc1ccccc1)OC(=O)c1ccccc1 [Compound 51, N-(benzoyloxy)-N-benzyl-2,2-dimethylbutanamide]",,,284,+,+,+
"CCC(C)(C)C(=O)N(Cc1ccccc1)OC(=O)CC(=O)ON(Cc1ccccc1)C(=O)C(C)(C)CC [Compound 52, N,N′-(malonylbis(oxy))bis(N-benzyl-2,2-dimethylbutanamide)]",,,42.2,+,+,+
"CCC(C)(C)C(=O)N(Cc1ccccc1)OC(=O)CCC(=O)ON(Cc1ccccc1)C(=O)C(C)(C)CC [Compound 53, N,N′-(succinylbis(oxy))bis(N-benzyl-2,2-dimethylbutanamide)]",,,85.5,+,+,+
"CCC(C)(C)C(=O)N(Cc1ccccc1)OC(=O)c1cccc(C(=O)ON(Cc2ccccc2)C(=O)C(C)(C)CC)c1 [Compound 54, N,N′-(isophthaloylbis(oxy))bis(N-benzyl-2,2-dimethylbutanamide)]",,,466,+,+,+
"CCC(C)(C)C(=O)N(Cc1ccccc1)OC(=O)OCCOCCOCCOC(=O)ON(Cc1ccccc1)C(=O)C(C)(C)CC [Compound 55, N,N′-(2,5,8,11-tetraoxadodecanedioylbis(oxy))bis(N-benzyl-2,2-dimethylbutanamide)]",,,99.3,+,+,+
"O=C(C1CCN(c2ncc(F)cn2)CC1)N(O)Cc1ccc(F)cc1 [Compound 85, N-(4-fluorobenzyl)-1-(5-fluoropyrimidin-2-yl)-N-hydroxypiperidine-4-carboxamide]",1000 to 10000,1000 to 10000,,,,
